Data published in patent US12466821B2 (Novartis AG, priority 2018, dated 2025).

Experiments:
[1] = tested on: Luciferase-encoding HCMV, AD169 strain; assay: CMV Luciferase assay (cellular herpesvirus replication); type: cell-based; details: Human betaherpesvirus 5, AD169, read-out: CMV-Luc Cellular EC50
Experimental: For all viral assays, 10 mM DMSO stock compound solutions were serially diluted in DMSO at 3.16 fold dilutions in 96-well clear round bottom plates. Compounds were then diluted in assay media at 1:20 and subsequently 10 μL of these dilutions were added to cells for final compound concentrations ranging either from 0.0159 μM to 50 μM in 0.5% DMSO/assay media, or from 0.00318 to 10 μM in 0.5% DMSO/assay media.
The assay uses a Luciferase-encoding HCMV. Luciferase is expressed under the control of a late viral gene (pp28) promoter in the AD169 strain, so that expression of the reporter is dependent on viral DNA replication. Compounds that affect any stage from viral entry to DNA replication result in a change in luciferase levels.
Viral replication in the presence or absence of compounds was measured by luciferase activity according to the following procedure: Neo-natal normal human dermal fibroblast cells (NN-NHDF, from ATCC cat #201-010) were seeded at 9,000 cells/well in 96-well white solid bottom plate at 80 uL/well in assay media: 2% FBS, 4 mM GlutaMax® (Invitrogen cat #35050) in DMEM/high glucose/no glutamine/no phenol red media (Invitrogen cat #31053). After 2 hrs at 37° C., 10 uL of compound diluted in assay media or 5% DMSO (final 0.5% DMSO/well) was added and the plates returned to 37° C. One hour later, 10 uL of virus diluted in assay media was added at a final Multiplicity of infection (MOI) of 1. Plates were incubated at 37° C. for 72 hrs. At 72 hours post-infection (hpi), plates were equilibrated to room temperature. After 25 min, 100 uL Renilla-Glo® Luciferase Assay Reagent (Promega cat # E2750) was added to each well and incubated for 10 min. Plates were covered to protect from light. Luminescence was measured on the PHERAstar FS®.
The following controls were included in the data analysis: No virus, no compound (0.5% DMSO)=IC (maximal inhibitory control); Virus, no compound (0.5% DMSO)=NC (neutral control). Data were analyzed using an internal Novartis software (Helios). The means of the controls (NC, IC) were used to normalize the results to a % scale using the formula: % Control=100−(100*(Sample value−NC)/(IC−NC)).
For each compound, the software derived an EC50 using a 4-parameter logistical model.

[2] = molecular target: human HSV DNA polymerase UL30 (Human herpesvirus 1 (strain 17) (HHV-1) (Human herpes simplex virus 1), UniProt P04293); assay: HSV polymerase biochemical assay (molecular beacon-based)
Experimental: (§1) Both human CMV DNA polymerase UL54 and human HSV DNA polymerase UL30 were produced as N-terminal MBP fusion of the full length, wild type recombinant proteins in order to enhance soluble expression in insect cell expression system. The proteins were expressed in sf9 insect cells via baculovirus transduction and cells were harvested after 48 hours. The soluble proteins were purified using the standard Ni-IMAC purification strategy via the N-terminal hexa-Histidine tag, followed by heparin affinity chromatography. Both of the final MBP fusion proteins were more than 90% pure and the yield of UL54 was up to 1.8 mg per liter culture while UL30 was up to 15 mg per liter culture. All purification steps were performed on ice, with buffers chilled on ice and FPLC fraction collectors set at 6° C. […] UL30 protein was stored in buffer containing 20 mM HEPES, pH7.0, 420 mM NaCl, 20% glycerol, 6 mM Imidazole, and 0.8 mM DTT at−80° C.
(§2) DNA polymerase activity was measured using a molecular beacon-based assay, as described in Ma et. al.
(§3) 100 pM CMV polymerase or 625 pM HSV polymerase was added to a buffer containing 20 mM Tris, pH=7.5, 100 mM NaCl, 10 mM MgCl2, 0.01% Tween-20, 0.5 mM EDTA, 10% Sucrose and 1 mM DTT. The inhibitor was pre-incubated with the polymerase for 30 minutes at room temperature. Reactions were initiated by the addition of a mixture containing 1.25 uM dATP, 1.25 uM dCTP, 1.25 uM dTTP, 1.25 uM dGTP, 200 nM Primer B (5′-GAC GGG AAG-3′5′-GAC GGG AAG-3′) and 100 nM molecular beacon (5′-5,6-FAM-CCTCTCCGTGTCTTGTACTTCCCGTCAGAGAGG-BHQ1-3′). For human CMV polymerase the reactions were incubated for 60 minutes at room temperature. For HSV polymerase the reactions were incubated for 20 minutes at room temperature. The reactions were then read on a Perkin-Elmer EnVision 2101 reader (fluorescence) using an excitation of 480 nm and emission of 535 nm. 1050s were determined using an internal Novartis software (Helios).
as §3, with “nm.” for “nm. 1050s were determined using an internal Novartis software (Helios).”

[3] = molecular target: human CMV DNA polymerase UL54 (Human cytomegalovirus (strain AD169) (HHV-5) (Human herpesvirus 5), UniProt P08546); assay: CMV polymerase biochemical assay (molecular beacon-based)
Experimental: as §1, §2, §3
as §3, with “nm.” for “nm. 1050s were determined using an internal Novartis software (Helios).”

SMILES	EC50 [1]	IC50 [2]	IC50 [3]
N#Cc1ccc(CNC(=O)c2ccc3n(c2=O)CCN(CC2(S(=O)(=O)CCCO)CC2)C3=O)cc1 [Example 24]	832 nM	168 nM	4.7 nM
CS(=O)(=O)C1(CN2CCn3c(ccc(C(=O)NCc4ccc(C#N)c(F)c4)c3=O)C2=O)CC1 [Example 39]	102 nM	105 nM	3.5 nM
O=C(NCc1ccc(Cl)cc1)c1ccc2n(c1=O)CCN(CCS(=O)(=O)C1CC1)C2=O [Example 193]	1240 nM	420 nM	34.1 nM
CC1(S(=O)(=O)C2(CN3CCn4c(ccc(C(=O)NCc5ccc(C#N)cc5)c4=O)C3=O)CC2)CC1 [Example 94-1]	13.3 nM	33.2 nM	0.6 nM
O=C(NCc1ccc(Cl)cc1)c1cc(C(F)(F)F)c2n(c1=O)CCN(CCN1CCCS1(=O)=O)C2=O [Example 147]	21400 nM	5050 nM	558 nM
N#Cc1ccc(CNC(=O)c2ccc3n(c2=O)CCN(CC2(S(=O)(=O)C4(C(F)(F)F)CC4)CC2)C3=O)cc1F [Example 97-2]	189 nM	90.8 nM	3.2 nM
CN(C)S(=O)(=O)C1(CN2CCn3c(ccc(C(=O)NCc4ccc(Cl)cc4)c3=O)C2=O)CC1 [Example 90-1, N-(4-chlorobenzyl)-2-((1-(N,N-dimethylsulfamoyl)cyclopropyl)methyl)-1,6-dioxo-2,3,4,6-tetrahydro-1H-pyrido[1,2-a]pyrazine-7-carboxamide]	13.4 nM	12.3 nM	0.4 nM
CCS(=O)(=O)C1(CN2CCn3c(ccc(C(=O)NCc4ccc(C#N)cc4)c3=O)C2=O)CC1 [Example 35]	54.4 nM	68.9 nM	2.6 nM
CS(=O)(=O)C1(CN2CCn3c(ccc(C(=O)NCC4CCC(F)(F)CC4)c3=O)C2=O)CC1 [Example 43]	6420 nM	7860 nM	62.5 nM
CN(CCN1CCn2c(c(C#N)cc(C(=O)NCc3ccc(Cl)cc3)c2=O)C1=O)S(C)(=O)=O [Example 127]	19900 nM	4790 nM	545 nM
O=C(NCc1ccc(Cl)cc1)c1ccc2n(c1=O)CCN(CC1(S(=O)(=O)C3(CO)CC3)CC1)C2=O [Example 10, N-(4-chlorobenzyl)-2-((1-((1-(hydroxymethyl)cyclopropyl)sulfonyl)cyclopropyl)methyl)-1,6-dioxo-2,3,4,6-tetrahydro-1H-pyrido[1,2-a]pyrazine-7-carboxamide]	4.9 nM	18.8 nM	0.3 nM
CS(=O)(=O)N1CCC1CN1CCn2c(ccc(C(=O)NCc3ccc(Cl)cc3)c2=O)C1=O (stereo not drawn) [Example 66]	1520 nM	1180 nM	112 nM
N#Cc1ccc(CNC(=O)c2ccc3n(c2=O)CCN(CC2(S(=O)(=O)[C@@H]4CC4(F)F)CC2)C3=O)cc1 (single isomer, unassigned) [Example 100-2]	43.1 nM	39.5 nM	1 nM
O=C(NCc1ccc(Cl)cc1)c1ccc2n(c1=O)CCN(CC1(S(=O)(=O)CC3CC3)CC1)C2=O [Example 107-1, N-(4-chlorobenzyl)-2-((1-((cyclopropylmethyl)sulfonyl)cyclopropyl)methyl)-1,6-dioxo-2,3,4,6-tetrahydro-1H-pyrido[1,2-a]pyrazine-7-carboxamide]	111 nM	61.6 nM	1.9 nM
N#Cc1ccc(CNC(=O)c2ccc3n(c2=O)CCN(CC2(S(=O)(=O)[C@H]4CC4(F)F)CC2)C3=O)cc1Cl (single isomer, unassigned) [Example 102-1]	229 nM	199 nM	2 nM
C[C@H](NC(=O)c1ccc2n(c1=O)CCN(CC1(S(C)(=O)=O)CC1)C2=O)c1ccc(Cl)cc1 [Example 44]	10000 nM	62900 nM	763 nM
O=C(NCc1ccc(Cl)cc1)c1ccc2n(c1=O)CCN(CC1(S(=O)(=O)C3CC3)CC1)C2=O [Example 2]	8.1 nM	15.5 nM	0.2 nM
CN(CCN1CCn2c(c(CF)cc(C(=O)NCc3ccc(Cl)cc3)c2=O)C1=O)S(C)(=O)=O [Example 140, N-(4-chlorobenzyl)-9-(fluoromethyl)-2-(2-(N-methylmethylsulfonamido)ethyl)-1,6-dioxo-1,3,4,6-tetrahydro-2H-pyrido[1,2-a]pyrazine-7-carboxamide]	2220 nM	4260 nM	242 nM
CN(C1(CN2CCn3c(ccc(C(=O)NCc4ccc(Cl)cc4)c3=O)C2=O)CC1)S(C)(=O)=O [Example 174]	4200 nM	2680 nM	64.3 nM
N#Cc1ccc(CNC(=O)c2ccc3n(c2=O)CCN(CC2(S(=O)(=O)C4CCC4)CC2)C3=O)cc1 [Example 79-1]	33.7 nM	33.4 nM	1.3 nM
CS(=O)(=O)NCCN1CCn2c(ccc(C(=O)NCc3ccc(Cl)cc3)c2=O)C1=O [Example 62, N-(4-chlorobenzyl)-2-(2-(methylsulfonamido)ethyl)-1,6-dioxo-2,3,4,6-tetrahydro-1H-pyrido[1,2-a]pyrazine-7-carboxamide]	19900 nM	4300 nM	657 nM
N#Cc1ccc(CNC(=O)c2ccc3n(c2=O)CCN(CC2(S(=O)(=O)CC4(C#N)CC4)CC2)C3=O)cc1F [Example 112]	187 nM	44.1 nM	2.2 nM
O=C(NCc1ccc(Cl)cc1)c1ccc2n(c1=O)CCN(CC1(S(=O)(=O)C3(F)CC3)CC1)C2=O [Example 76, N-(4-chlorobenzyl)-2-((1-((1-fluorocyclopropyl)sulfonyl)cyclopropyl)methyl)-1,6-dioxo-2,3,4,6-tetrahydro-1H-pyrido[1,2-a]pyrazine-7-carboxamide]	46.9 nM	59.5 nM	1.9 nM
O=C(NCc1ccc(Cl)cc1)c1ccc2n(c1=O)CCN(CC1(S(=O)(=O)CCCO)CC1)C2=O [Example 25]	88.9 nM	80.8 nM	2.8 nM
N#Cc1ccc(CNC(=O)c2ccc3n(c2=O)CCN(CC2(S(=O)(=O)CC4CC4)CC2)C3=O)cc1F [Example 107-3]	174 nM	72.6 nM	2.2 nM
